Measurements: patent publication US7713994B2 (Wyeth LLC, priority 2005, dated 2010)

Columns and labels:
IGF1-receptor kinase = target: T1, IGF1-receptor kinase (Homo sapiens, UniProt P08069); experiment: IGF1-R kinase assay (96-well FRET Lance); assay type: biochemical; details: for inhibition at 10 µM: read-out: Igfr % Inhibition at 10 uM; for IC50: 100 micromolar ATP, read-out: Igfr ic50
T1 construct: Purified GST-IGFR; purified Bis-IGFR and Tris-IGFR; fused on or other part: GST with a thrombin cleavage site, removed in the Bis-IGFR and Tris-IGFR forms
Source text: • TITLE: 96-well assay for inhibitors of IGF1-receptor kinase activity • SHORT TITLE: IGF1-R kinase assay • PURPOSE: Identify inhibitors of IGF-1 receptor kinase activity • MATERIALS AND METHODS: Overview: This is a 96-well FRET (Lance) tyrosine kinase assay. • Materials: • Purified GST-IGFR; purified Bis-IGFR and Tris-IGFR; expressed in ExpresSF insect cells. Bis and Tris IGFR are made by phosphorylating the IGFR in the presence of ATP and Mg2+, followed by thrombin cleavage to remove the GST-thrombin cleavage site, and purification by HPLC. The Bis and tris IGFR are phosphorylated on two (bis) or all three tyrosines (tris) in the activation loop. • Biotinylated peptide with a sequence corresponding to the sequence surrounding the autophosphorylation sites in IGF1-R Biotin-NH2-[…]-OH (Anaspec) • Europium-conjugated phosphotyrosine antibody (PT66) (Perkin-Elmer). • Surelight APC (Perkin-elmer) • Plates: 96-well Assay plates (polypropylene plates, natural color) • 96-well-Lance plates (Microfluor 2 black plates; Cat # 7205; Thermolabsystems. • ATP: (Amersham Pharmacia Cat # 27-2056-01), 100 mM stock. • IGFR Lance Protocol (96-well format) • Procedure: • Reagents: • Kinase Buffer (10×): • 0.5 M Hepes, pH 7.5 rt • 0.1 M MgCl2 • Quench Buffer (to be added straight, 1:1, to r×n mix): • 50 mM Hepes, pH 7.5 rt • 50 mM EDTA • Lance Detection Buffer: • 20 mM Tris-HCl, pH 7.5 rt • 0.15 M NaCl-150 • 150 ug/ml BSA (Sigma Cat# A-7284) • Eu-labeled phosphotyrosine antibody PT66 (Perkin-Elmer): 1:4000 dilution of 200 μg/ml stock • Streptavidin-APC (Perkin Elmer): 1/250 (4 microgram/ml final) • ATP (Amersham Pharmacia cat #27-2056-01) 100 mM stock: Dilute to 1 mM (10×) in water. […] Transfer 12.5[…] of the kinase reaction to the antibody detection plate. Allow antibody to react for 1 h at rt in the dark. Then read in Victor with an excitation filter of 340 nm and an emission filter of 665 nm. • Compound additions: • When Example compounds are tested, they are added from a 10% DMSO/50 mM Hepes (pH 7.5) 10× stock. 5 microliters of compound in this buffer are added to the enzyme-peptide-buffer mix. After 10′ incubation at room temperature, ATP is added to start the reaction. A no ATP background control is included in the assay. • […] OF RESULTS: Data are analyzed as follows: % Inhibition={[Sample cpm−Bkg cpm]/[No cmpd cpm−Bkg cpm]}×100%. The biological activity of representative Examples of the invention is reported in Table VII as: 0.2 µM≦x≦10 µM or % inhibition@10 µM.

SK-UT-1B = experiment: In Vitro Cellular Activity (Table III), SK-UT-1B; assay type: cell-based; details: Homo sapiens, Skut1B; SK-UT-1B cells
cyclin E/CDK2 enzyme = target: T2, cyclin E/CDK2 enzyme (Homo sapiens, UniProt P24941); experiment: CDK2 ELISA kinase assay (phospho-Rb ser 795 detection); assay type: biochemical; details: In Vitro Enzyme Assays, read-out: CDK2 IC50
T2 construct: made in house; host or cells: Sf9 insect cells, recombinant baculovirus
Procedure, shortened: (§1)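 Sf9-derived cyclin/CDK, 200 μM ATP, immobilized GST-Rb; 30° C/1 h. Detection: phospho-Ser795 Ab, HRP, TMB, OD450.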

cyclin D1/cdk 4 enzyme = target: T3, cyclin D1/cdk 4 enzyme (Homo sapiens, UniProt P11802); experiment: CDK4 ELISA kinase assay (phospho-Rb ser 795 detection); assay type: biochemical; details: In Vitro Enzyme Assays, 200 μM ATP, read-out: CDK4 IC50
T3 construct: made in house; host or cells: Sf9 insect cells, recombinant baculovirus
Procedure, shortened: as §1

HCT-116 = experiment: Cytotoxicity assay (SRB), HCT-116; assay type: cell-based; details: Homo sapiens, HCT-116, 72 h, HCT116 cells, SRB, three days; read-out: In Vitro Cellular Activity IC50 HCT116
Procedure, shortened: (§2)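 Protein staining with sulforhodamine B after cold TCA fixation served as the survival endpoint (A540, relative to untreated cells). Before staining, cells were incubated with compound at 37 °C, 7% CO2 for 3 days, or 6 days for BT474.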

MCF-7 = experiment: Cytotoxicity assay (SRB), MCF-7; assay type: cell-based; details: Homo sapiens, MCF7, 72 h, MCF-7 cells, SRB, three days; read-out: In Vitro Cellular Activity IC50 MCF-7
Procedure, shortened: as §2

cyclin B/CDK1 enzyme = target: T4, cyclin B/CDK1 enzyme (Homo sapiens, UniProt P06493); experiment: CDK1 ELISA kinase assay (phospho-Rb ser 795 detection); assay type: biochemical; details: In Vitro Enzyme Assays, read-out: CDK1 IC50
T4 construct: purchased New England BioLabs; host or cells: Sf9 insect cells, recombinant baculovirus
Procedure, shortened: as §1

LoVo = experiment: Cytotoxicity assay (SRB), LoVo; assay type: cell-based; details: Homo sapiens, LoVo, 72 h, LoVo cells, SRB, three days; read-out: In Vitro Cellular Activity IC50 LOVO
Procedure, shortened: as §2

BT474 = experiment: Cytotoxicity assay (SRB), BT474; assay type: cell-based; details: Homo sapiens, BT-474, 144 h, BT474 cells, SRB, 6 days; read-out: In Vitro Cellular Activity IC50 BT474
Procedure, shortened: as §2

T4 sequence (P06493 whole entry): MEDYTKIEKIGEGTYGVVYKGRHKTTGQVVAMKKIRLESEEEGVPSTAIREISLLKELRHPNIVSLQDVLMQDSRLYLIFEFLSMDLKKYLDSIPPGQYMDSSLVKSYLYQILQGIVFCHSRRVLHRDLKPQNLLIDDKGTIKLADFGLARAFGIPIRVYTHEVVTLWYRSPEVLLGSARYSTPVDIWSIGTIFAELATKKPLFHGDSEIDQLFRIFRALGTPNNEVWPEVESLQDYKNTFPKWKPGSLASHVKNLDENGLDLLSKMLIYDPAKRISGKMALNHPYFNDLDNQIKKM
T4 sequence (P14635 whole entry partner): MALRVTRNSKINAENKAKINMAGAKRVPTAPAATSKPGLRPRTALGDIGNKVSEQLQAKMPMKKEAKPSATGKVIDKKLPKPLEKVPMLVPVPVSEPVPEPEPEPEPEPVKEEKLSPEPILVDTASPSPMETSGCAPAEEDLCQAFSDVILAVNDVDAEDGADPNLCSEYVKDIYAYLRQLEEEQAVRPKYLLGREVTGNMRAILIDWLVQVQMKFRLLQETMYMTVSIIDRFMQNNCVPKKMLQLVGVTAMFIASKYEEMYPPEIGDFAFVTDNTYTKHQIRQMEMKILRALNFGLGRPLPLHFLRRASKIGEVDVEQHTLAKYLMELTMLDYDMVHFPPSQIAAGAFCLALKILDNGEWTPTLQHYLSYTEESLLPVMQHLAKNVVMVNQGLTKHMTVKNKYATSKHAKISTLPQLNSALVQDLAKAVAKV
T3 sequence (P11802 whole entry, species assumed): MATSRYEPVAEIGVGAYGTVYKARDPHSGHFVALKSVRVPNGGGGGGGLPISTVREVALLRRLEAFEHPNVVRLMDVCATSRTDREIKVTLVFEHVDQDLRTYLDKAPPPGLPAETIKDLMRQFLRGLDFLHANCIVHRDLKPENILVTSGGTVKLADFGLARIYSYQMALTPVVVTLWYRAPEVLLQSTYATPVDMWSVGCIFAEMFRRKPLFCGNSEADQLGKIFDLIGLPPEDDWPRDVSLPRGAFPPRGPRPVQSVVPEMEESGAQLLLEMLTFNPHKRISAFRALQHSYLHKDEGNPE
T3 sequence (P24385 whole entry partner, species assumed): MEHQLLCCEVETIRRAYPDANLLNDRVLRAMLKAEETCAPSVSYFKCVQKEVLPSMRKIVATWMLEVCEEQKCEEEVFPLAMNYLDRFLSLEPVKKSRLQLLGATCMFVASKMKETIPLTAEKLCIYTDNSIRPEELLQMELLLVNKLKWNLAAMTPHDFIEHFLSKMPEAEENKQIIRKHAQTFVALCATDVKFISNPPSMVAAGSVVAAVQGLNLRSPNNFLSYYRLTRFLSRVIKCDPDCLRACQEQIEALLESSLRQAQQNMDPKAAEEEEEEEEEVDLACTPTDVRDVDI
T1 sequence (P08069 999-1274 limits assumed): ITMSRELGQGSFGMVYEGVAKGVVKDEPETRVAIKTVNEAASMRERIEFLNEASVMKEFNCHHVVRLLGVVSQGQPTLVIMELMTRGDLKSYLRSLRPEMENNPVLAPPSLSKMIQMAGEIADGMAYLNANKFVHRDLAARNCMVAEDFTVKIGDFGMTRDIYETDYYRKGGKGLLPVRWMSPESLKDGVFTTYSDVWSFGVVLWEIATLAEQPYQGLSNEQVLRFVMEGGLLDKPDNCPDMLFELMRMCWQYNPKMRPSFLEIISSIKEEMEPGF

## O=C1NC(=O)c2ccc(Nc3ccc(Cl)cc3)cc2/C1=C/Nc1ccc(CN2CCCCC2)cc1 [Example 890, (4Z)-6-[(4-chlorophenyl)amino]-4-({[4-(piperidin-1-ylmethyl)phenyl]amino}methylene)isoquinoline-1,3(2H,4H)-dione]
IGF1-receptor kinase; 10 uM compound
  inhibition at 10 µM: 47%

## COc1ccc(N/C=C2\C(=O)NC(=O)c3ccccc32)cc1 [Example 1, (4Z)-4-{[(4-Methoxyphenyl)amino]methylene}isoquinoline-1,3(2H,4H)-dione]
SK-UT-1B
  IC50: > 36 µM
Cyclin E/CDK2 enzyme
  IC50: 18.9 µM
Cyclin D1/cdk 4 enzyme
  IC50: 38 µM
HCT-116
  IC50: 29 µM
MCF-7
  IC50: 19 µM
Cyclin B/CDK1 enzyme
  IC50: > 36 µM
LoVo
  IC50: 30 µM
other
  melting point: 150 to 151 °C
BT474
  IC50: 43 µM

## CCOC(=O)c1ccc(Nc2ccc3c(c2)/C(=C/Nc2ccc(CN4CCCCC4)cc2)C(=O)NC3=O)cc1 [Example 903, ethyl 4-{[(4Z)-1,3-dioxo-4-({[4-(piperidin-1-ylmethyl)phenyl]amino}methylene)-1,2,3,4-tetrahydroisoquinolin-6-yl]amino}benzoate]
IGF1-receptor kinase; 10 uM compound
  inhibition at 10 µM: 45%

## O=C1NC(=O)c2ccc(Nc3ccccc3)cc2/C1=C/Nc1ccc(CN2CCCCC2)cc1 [Example 887, (4Z)-6-anilino-4-({[4-(piperidin-1-ylmethyl)phenyl]amino}methylene)isoquinoline-1,3(2H,4H)-dione]
IGF1-receptor kinase
  IC50: 0.208 µM

## O=C1NC(=O)c2ccc(Nc3ccccc3Cl)cc2/C1=C/Nc1ccc(CN2CCCCC2)cc1 [Example 904, (4Z)-6-[(2-chlorophenyl)amino]-4-({[4-(piperidin-1-ylmethyl)phenyl]amino}methylene)isoquinoline-1,3-(2H,4H)-dione]
IGF1-receptor kinase
  IC50: 1.7 µM

## NC(=O)c1ccc(Nc2ccc3c(c2)/C(=C/Nc2ccc(CN4CCCCC4)cc2)C(=O)NC3=O)cc1 [Example 894, 4-{[(4Z)-1,3-dioxo-4-({[4-(piperidin-1-ylmethyl)phenyl]amino}methylene)-1,2,3,4-tetrahydroisoquinolin-6-yl]amino}benzamide]
IGF1-receptor kinase
  IC50: 1.11 µM

## COc1ccc(Nc2ccc3c(c2)/C(=C/Nc2ccc(CN4CCCCC4)cc2)C(=O)NC3=O)cc1 [Example 898, (4Z)-6-[(4-methoxyphenyl)amino]-4-({[4-(piperidin-1-ylmethyl)phenyl]amino}methylene)isoquinoline-1,3(2H,4H)-dione]
IGF1-receptor kinase
  IC50: 0.868 µM

## Nc1cccc(Nc2ccc3c(c2)/C(=C/Nc2ccc(CN4CCCCC4)cc2)C(=O)NC3=O)c1 [Example 883, (4Z)-6-[(3-aminophenyl)amino]-4-({[4-(piperidin-1-ylmethyl)phenyl]amino}methylene)isoquinoline-1,3(2H,4H)-dione]
IGF1-receptor kinase; 10 uM compound
  inhibition at 10 µM: 33%

## N#Cc1ccccc1Nc1ccc2c(c1)/C(=C/Nc1ccc(CN3CCCCC3)cc1)C(=O)NC2=O [Example 902, 2-{[(4Z)-1,3-dioxo-4-({[4-(piperidin-1-ylmethyl)phenyl]amino}methylene)-1,2,3,4-tetrahydroisoquinolin-6-yl]amino}benzonitrile]
IGF1-receptor kinase
  IC50: 3.7 µM

## COc1cccc(Nc2ccc3c(c2)/C(=C/Nc2ccc(CN4CCCCC4)cc2)C(=O)NC3=O)c1 [Example 892, (4Z)-6-[(3-methoxyphenyl)amino]-4-({[4-(piperidin-1-ylmethyl)phenyl]amino}methylene)isoquinoline-1,3(2H,4H)-dione]
IGF1-receptor kinase
  IC50: 0.954 µM

## O=C1NC(=O)c2ccc(Nc3ccc4[nH]ccc4c3)cc2/C1=C/Nc1ccc(CN2CCCCC2)cc1 [Example 912]
IGF1-receptor kinase; 10 uM compound
  Igfr % Inhibition at 10 uM: 9%

## COc1ccccc1Nc1ccc2c(c1)/C(=C/Nc1ccc(CN3CCCCC3)cc1)C(=O)NC2=O [Example 891]
IGF1-receptor kinase
  IC50: 0.575 µM

## CN1CCN(c2ccc(N/C=C3\C(=O)NCc4ccccc43)cc2)CC1 [Example 2, (4Z)-4-({[4-(4-Methyl-1-piperazinyl)phenyl]amino}methylene)-1,4-dihydro-3(2H)-isoquinolinone]
SK-UT-1B
  IC50: 4.3 µM
Cyclin E/CDK2 enzyme
  IC50: > 29 µM
Cyclin D1/cdk 4 enzyme
  IC50: 12.1 µM
HCT-116
  IC50: 7.4 µM
MCF-7
  IC50: 6.7 µM
Cyclin B/CDK1 enzyme
  IC50: > 29 µM
LoVo
  IC50: 7.8 µM
other
  melting point: 186 to 187 °C (dec.)
BT474
  IC50: 21.5 µM

## O=C1NC(=O)c2ccc(Br)cc2/C1=C/NCc1ccncc1 [Example 31, (4Z)-6-Bromo-4-{[(pyridin-4-ylmethyl)amino]methylene}isoquinoline-1,3(2H,4H)-dione]
SK-UT-1B
  IC50: > 50 µM
Cyclin E/CDK2 enzyme
  IC50: 2.4 µM
Cyclin D1/cdk 4 enzyme
  IC50: > 50 µM
HCT-116
  IC50: 31 µM
MCF-7
  IC50: > 50 µM
Cyclin B/CDK1 enzyme
  IC50: > 50 µM
LoVo
  IC50: > 50 µM
other
  melting point: 258 to 259 °C
BT474
  IC50: 41 µM

## O=C1NC(=O)c2ccccc2/C1=C/Nc1ccc2ncccc2c1 [Example 8, (4Z)-4-[(Quinolin-6-ylamino)methylene]isoquinoline-1,3(2H,4H)-dione]
SK-UT-1B
  IC50: 8.9 µM
Cyclin E/CDK2 enzyme
  IC50: > 32 µM
Cyclin D1/cdk 4 enzyme
  IC50: > 50 µM
HCT-116
  IC50: > 50 µM
MCF-7
  IC50: > 50 µM
Cyclin B/CDK1 enzyme
  IC50: > 32 µM
LoVo
  IC50: > 50 µM
other
  melting point: 277 to 278 °C
BT474
  IC50: > 50 µM

## CN(C(=O)CN1CCCCC1)c1ccc(N/C=C2\C(=O)NC(=O)c3ccccc32)cc1 [Example 29, N-(4-{[(Z)-(1,3-Dioxo-2,3-dihydroisoquinolin-4(1H)-ylidene)methyl]amino}phenyl)-1,3(2H,4H)-dione N-Methyl-2-piperidin-1-ylacetamide]
SK-UT-1B
  IC50: 17 µM
Cyclin E/CDK2 enzyme
  IC50: > 23 µM
Cyclin D1/cdk 4 enzyme
  IC50: 15 µM
HCT-116
  IC50: 21 µM
MCF-7
  IC50: 12 µM
Cyclin B/CDK1 enzyme
  IC50: > 23 µM
LoVo
  IC50: 19 µM
other
  melting point: 223 to 224 °C
BT474
  IC50: 21 µM

## COCC1CCCN1Cc1ccc(N/C=C2\C(=O)NC(=O)c3ccc(Br)cc32)cc1 (stereo in doubt) [Example 39]
SK-UT-1B
  IC50: 10 µM
Cyclin E/CDK2 enzyme
  IC50: > 50 µM
Cyclin D1/cdk 4 enzyme
  IC50: 1.1 µM
HCT-116
  IC50: 7.5 µM
MCF-7
  IC50: 6.3 µM
Cyclin B/CDK1 enzyme
  IC50: > 50 µM
LoVo
  IC50: 9.4 µM
other
  melting point: 129 to 130 °C
BT474
  IC50: 7.9 µM

## COC[C@H]1CCCN1Cc1ccc(N/C=C2\C(=O)NC(=O)c3ccc(Br)cc32)cc1 [Example 38]
SK-UT-1B
  IC50: 11 µM
Cyclin E/CDK2 enzyme
  IC50: > 50 µM
Cyclin D1/cdk 4 enzyme
  IC50: 1.1 µM
HCT-116
  IC50: 7.3 µM
MCF-7
  IC50: 3.7 µM
Cyclin B/CDK1 enzyme
  IC50: > 50 µM
LoVo
  IC50: 7.9 µM
other
  melting point: 129 to 130 °C
BT474
  IC50: 2.8 µM
